Laboratory results reported in US20260274892A1, “MACROCYCLIC BROAD SPECTRUM ANTIBIOTICS” (RQx Pharmaceuticals, Inc., priority 2017, published 2026).

How the values were obtained:
[1] = system: Methicillin Resistant Staphylococcus aureus strain USA 200; assay: Minimum inhibitory concentration (MIC), CLSI broth micro-dilution, S. aureus; type: cell-based; details: Staphylococcus aureus, MRSA / USA200, MRSA USA 200, cation adjusted Mueller Hinton Broth + 0.002% Tween-80, 35° C., 22 hours
How it was run: (§1)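 Antibacterial potency is measured as MIC by the CLSI broth dilution method. Bacteria at OD600 0.0005 in Tween-80-supplemented cation-adjusted Mueller Hinton broth face ten twofold compound dilutions for 22 h at 35° C.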

[2] = system: Escherichia coli ATCC 25922; assay: Minimum inhibitory concentration (MIC), CLSI broth micro-dilution, E. coli; type: cell-based; details: Escherichia coli, ATCC25922, 22 h
How it was run: as §1

[3] = Table 6, cation adjusted Mueller Hinton Broth + 0.002% Tween-80, 35° C.
[4] = Table 8, cation adjusted Mueller Hinton Broth + 0.002% Tween-80, 35° C.

SMILES | MIC ([1]; Table 6) | MIC [2, 3] | MIC ([1]; Table 8) | MIC [2, 4]
Cc1nc(-c2ccc(O)cc2)nc(C)c1C(=O)N[C@@H](CCN)C(=O)N(C)[C@@H]1C(=O)N[C@@H](C)C(=O)N[C@H](C(=O)NCC#N)Cc2ccc(OCCN)c(c2)-c2cc1ccc2OCCN (racemic) [Compound 542, rac-(8S,11S,14S)-3,18-bis(2-aminoethoxy)-N-(cyanomethyl)-11-methyl-14-[methyl-[rac-(2S)-4-amino-2-[[2-(4-hydroxyphenyl)-4,6-dimethyl-pyrimidine-5-carbonyl]amino]butanoyl]amino]-10,13-dioxo-9,12-diazatricyclo[13.3.1.12,6]icosa-1(18),2(20),3,5,15(19),16-hexaene-8-carboxamide] | 0.55 µM | 4.4 µM | – | –
Cc1nc(-c2ccc(C3(C)CC3)cc2)nc(C)c1C(=O)N[C@@H](CCN)C(=O)N(C)[C@@H]1C(=O)N[C@@H](C)C(=O)N[C@H](C(=O)NCC#N)Cc2ccc(O)c(c2)-c2cc1ccc2OCCN (racemic) [Compound 543, rac-(8S,11S,14S)-18-(2-aminoethoxy)-N-(cyanomethyl)-3-hydroxy-11-methyl-14-[methyl-[rac-(2S)-4-amino-2-[[4,6-dimethyl-2-[4-(1-methylcyclopropyl)phenyl]pyrimidine-5-carbonyl]amino]butanoyl]amino]-10,13-dioxo-9,12-diazatricyclo[13.3.1.12,6]icosa-1(18),2(20),3,5,15(19),16-hexaene-8-carboxamide] | 0.063 µM | 0.35 µM | – | –
Cc1nc(-c2ccc(C(C)(C)C)cc2)nc(N)c1C(=O)N[C@@H](CCN)C(=O)N(C)[C@@H]1C(=O)N[C@@H](C)C(=O)N[C@H](C(=O)NCC#N)Cc2ccc(O)c(c2)-c2cc1ccc2OCCN (racemic) [Compound 548, rac-(8S,11S,14S)-18-(2-aminoethoxy)-N-(cyanomethyl)-3-hydroxy-11-methyl-14-[methyl-[rac-(2S)-4-amino-2-[[4-amino-2-(4-tert-butylphenyl)-6-methyl-pyrimidine-5-carbonyl]amino]butanoyl]amino]-10,13-dioxo-9,12-diazatricyclo[13.3.1.12,6]icosa-1(18),2(20),3,5,15(19),16-hexaene-8-carboxamide] | 0.047 µM | 0.46 µM | – | –
Cc1nc(-c2ccc(C(C)(C)C)cc2)ncc1C(=O)N[C@@H](CCN)C(=O)N(C)[C@@H]1C(=O)N[C@@H](C)C(=O)N[C@H](C(=O)NCC#N)Cc2ccc(OCCN)c(c2)-c2cc1ccc2O (racemic) [Compound 549, rac-(8S,11S,14S)-3-(2-aminoethoxy)-N-(cyanomethyl)-18-hydroxy-11-methyl-14-[methyl-[rac-(2S)-4-amino-2-[[2-(4-tert-butylphenyl)-4-methyl-pyrimidine-5-carbonyl]amino]butanoyl]amino]-10,13-dioxo-9,12-diazatricyclo[13.3.1.12,6]icosa-1(18),2(20),3,5,15(19),16-hexaene-8-carboxamide] | 0.035 µM | 0.21 µM | – | –
Cc1nc(-c2ccc(OC(C)C)cc2)nc(C)c1C(=O)N[C@@H](CCN)C(=O)N(C)[C@@H]1C(=O)N[C@@H](C)C(=O)N[C@H](C(=O)NCC#N)Cc2ccc(O)c(c2)-c2cc1ccc2OCCN (racemic) [Compound 552, rac-(8S,11S,14S)-18-(2-aminoethoxy)-N-(cyanomethyl)-3-hydroxy-11-methyl-14-[methyl-[rac-(2S)-4-amino-2-[[2-(4-isopropoxyphenyl)-4,6-dimethyl-pyrimidine-5-carbonyl]amino]butanoyl]amino]-10,13-dioxo-9,12-diazatricyclo[13.3.1.12,6]icosa-1(18),2(20),3,5,15(19),16-hexaene-8-carboxamide] | 0.25 µM | 1.4 µM | – | –
Cc1nc(-c2ccc(C(C)(C)C)cc2)nc(C)c1C(=O)N[C@@H](CCN)C(=O)N(C)[C@@H]1C(=O)N[C@@H](C)C(=O)N[C@H](C(=O)NCC#N)Cc2ccc(OCCN)c(c2)-c2cc1ccc2O (racemic) [Compound 553, rac-(8S,11S,14S)-3-(2-aminoethoxy)-N-(cyanomethyl)-18-hydroxy-11-methyl-14-[methyl-[rac-(2S)-4-amino-2-[[2-(4-tert-butylphenyl)-4,6-dimethyl-pyrimidine-5-carbonyl]amino]butanoyl]amino]-10,13-dioxo-9,12-diazatricyclo[13.3.1.12,6]icosa-1(18),2(20),3,5,15(19),16-hexaene-8-carboxamide] | 0.055 µM | 0.21 µM | – | –
COc1ccc2cc1-c1cc(ccc1OCCN)C[C@@H](C(=O)NCC#N)NC(=O)[C@H](C)NC(=O)[C@H]2N(C)C(=O)[C@H](CCN)NC(=O)c1cnc(-c2ccc(C(C)(C)C)cc2)nc1C (racemic) [Compound 558, rac-(8S,11S,14S)-3-(2-aminoethoxy)-N-(cyanomethyl)-18-methoxy-11-methyl-14-[methyl-[rac-(2S)-4-amino-2-[[2-(4-tert-butylphenyl)-4-methyl-pyrimidine-5-carbonyl]amino]butanoyl]amino]-10,13-dioxo-9,12-diazatricyclo[13.3.1.12,6]icosa-1(18),2(20),3,5,15(19),16-hexaene-8-carboxamide] | 0.046 µM | 0.73 µM | – | –
CCCCCOc1ccc(-c2nc(C)c(C(=O)N[C@@H](CCN)C(=O)N(C)[C@@H]3C(=O)N[C@@H](C)C(=O)N[C@H](C(=O)O)Cc4ccc(OCCN)c(c4)-c4cc3ccc4OCCN)c(C)n2)cc1 (racemic) [Compound 638, rac-(8S,11S,14S)-3,18-bis(2-aminoethoxy)-11-methyl-14-[methyl-[rac-(2S)-4-amino-2-[[4,6-dimethyl-2-(4-pentoxyphenyl)pyrimidine-5-carbonyl]amino]butanoyl]amino]-10,13-dioxo-9,12-diazatricyclo [13.3.1.12,6]icosa-1(18),2(20),3,5,15(19), 16-hexaene-8-carboxylic acid] | – | – | 0.19 µM | 0.22 µM
CCCCCOc1ccc(-c2nc(C)c(C(=O)N[C@@H](CCN)C(=O)N(C)[C@@H]3C(=O)N[C@@H](C)C(=O)N[C@H](C(=O)O)Cc4ccc(OCCN)c(c4)-c4cc3ccc4O)c(C)n2)cc1 (racemic) [Compound 642, rac-(8S,11S,14S)-3-(2-aminoethoxy)-18-hydroxy-11-methyl-14-[methyl-[rac-(2S)-4-amino-2-[[4,6-dimethyl-2-(4-pentoxyphenyl)pyrimidine-5-carbonyl]amino]butanoyl]amino]-10,13-dioxo-9,12-diazatricyclo [13.3.1.12,6]icosa-1(18),2(20),3,5,15(19), 16-hexaene-8-carboxylic acid] | – | – | 0.21 µM | 0.23 µM

Now from value to molecule:

MIC ([1]; Table 6) | MIC [2, 3] | MIC ([1]; Table 8) | MIC [2, 4] | SMILES
– | – | 0.75 µM | 0.38 µM | CCC1(Oc2ccc(-c3nc(C)c(C(=O)N[C@@H](CCN)C(=O)N(C)[C@@H]4C(=O)N[C@@H](C)C(=O)N[C@H](C(=O)O)Cc5ccc(OCCN)c(c5)-c5cc4ccc5OCCN)c(C)n3)cc2)CC1 (racemic) [Compound 639, rac-(8S,11S,14S)-3,18-bis(2-aminoethoxy)-11-methyl-14-[methyl-[rac-(2S)-4-amino-2-[[2-[4-(1-ethylcyclopropoxy)phenyl]-4,6-dimethyl-pyrimidine-5-carbonyl]amino]butanoyl]amino]-10,13-dioxo-9,12-diazatricyclo [13.3.1.12,6]icosa-1(18),2(20),3,5,15(19), 16-hexaene-8-carboxylic acid]
– | – | 0.047 µM | 0.094 µM | CCCCCCOc1ccc(-c2nc(C)c(C(=O)N[C@@H](CCN)C(=O)N(C)[C@@H]3C(=O)N[C@@H](C)C(=O)N[C@H](C(=O)O)Cc4ccc(OCCN)c(c4)-c4cc3ccc4OCCN)c(C)n2)cc1 (racemic) [Compound 641, rac-(8S,11S,14S)-3,18-bis(2-aminoethoxy)-11-methyl-14-[methyl-[rac-(2S)-4-amino-2-[[2-(4-hexoxyphenyl)-4,6-dimethyl-pyrimidine-5-carbonyl]amino]butanoyl]amino]-10,13-dioxo-9,12-diazatricyclo [13.3.1.12,6]icosa-1(18),2(20),3,5,15(19), 16-hexaene-8-carboxylic acid]
– | – | 1.1 µM | 2.3 µM | Cc1nc(-c2ccc(OC(C)C)cc2)nc(C)c1C(=O)N[C@@H](CCN)C(=O)N(C)[C@@H]1C(=O)N[C@@H](C)C(=O)N[C@H](C(=O)O)Cc2ccc(O)c(c2)-c2cc1ccc2OCCN (racemic) [Compound 643, rac-(8S,11S,14S)-18-(2-aminoethoxy)-3-hydroxy-11-methyl-14-[methyl-[rac-(2S)-4-amino-2-[[2-(4-isopropoxyphenyl)-4,6-dimethyl-pyrimidine-5-carbonyl]amino]butanoyl]amino]-10,13-dioxo-9,12-diazatricyclo [13.3.1.12,6]icosa-1(18),2(20),3,5,15(19), 16-hexaene-8-carboxylic acid]
– | – | 1.2 µM | 0.58 µM | Cc1cc(-c2ccc(C(C)(C)C)cc2)nc(C)c1C(=O)N[C@@H](CCN)C(=O)N(C)[C@@H]1C(=O)N[C@@H](C)C(=O)N[C@H](C(=O)O)Cc2ccc(O)c(c2)-c2cc1ccc2OCCN (racemic) [Compound 644, rac-(8S,11S,14S)-18-(2-aminoethoxy)-3-hydroxy-11-methyl-14-[methyl-[rac-(2S)-4-amino-2-[[6-(4-tert-butylphenyl)-2,4-dimethyl-pyridine-3-carbonyl]amino]butanoyl]amino]-10,13-dioxo-9,12-diazatricyclo [13.3.1.12,6]icosa-1(18),2(20),3,5,15(19), 16-hexaene-8-carboxylic acid]
